In patent US10886008B2, “Methods and systems for determining the biological age of samples” (Spring Discovery, Inc., priority 2018, dated 2021):

Columns and labels:
[1] = system: mouse myoblast cells; assay: In vitro cell-based drug screening of mouse myoblast cells with machine-learning biological age prediction; set-up: species or system C57BL/6J mice; settings: for Change relative to control: average predicted age of treatment vs vehicle control wells on the same plate, concentrations of Table 8; for Average predicted age of treatment (months): primary myoblasts, concentrations of Table 8: Oxytocin 30 nM, TGFbeta 10 ng/mL, Wnt3a 100 ng/ml, Klotho 0.5 μg/mL, ALK5 inhibitor II 0.5 μM, PP242 300 nM, stained 48 hours post-plating
Method: The machine learning systems and methods for predicting biological age were applied toward accelerating drug screens designed to detect interventions that slow or reverse one or more phenotypes of aging. Such a drug screening approach was tested using proof-of-concept drug screens, including an in vitro drug screening experimental model. This machine learning-based drug screening approach for aging-related therapies is described below. The machine learning-based mouse myoblast cellular aging approach was used to test an in vitro screening model for detecting anti-aging molecules for myoblasts.
The myoblast cell screening was run in parallel with the myoblast biological age prediction described in Example 3, and the same processes for primary cell acquisition, preparation, processing, and image acquisition steps were performed as described in Example 3.
For myoblast screening, replicate 384-well plates were dedicated to testing compound treatments (Treatment Plates) and were seeded with primary myoblasts, replicating the same plate layout as the myoblast age prediction experiment described in Example 3.
For the Treatment Plates, after the cells adhere to the plate (around 2 hours post-plating) the media was changed. For each set of 10 replicate wells from each primary myoblast line, 4 of the wells received media supplemented with vehicle control, 3 wells received media supplemented with one test compound, and 3 wells received media supplemented with another test compound. In this manner, each Treatment Plate was used to test two different compounds, and three Treatment Plates were used in total to test six different compounds.
All Treatment Plates were fed 24 hours post-plating with myoblast growth media supplemented with drugs or their respective vehicle control.
As mentioned, the plates are handled, processed, and stained in the same way as described in the myoblast biological age prediction described in Example 3. Briefly, these plates were stained for EdU, desmin, ER cytopainter, and counterstained with Hoechst.
Next, the data were prepared using a similar process as that described in Example 3. This created a treatment dataset that was analyzed using a previously generated aging model, which was trained on the aging dataset that was generated as described in Example 3.
Next, the data was analyzed using a similar deep convolutional neural network architecture and the machine learning analysis approach described in Example 1. First, the deep convolutional neural network architecture was trained using the aging dataset and the machine learning analysis approach described in Example 1. Performing this training yields a final set of weights to use with the neural network for the treatment analysis. Second, the effects of the treatments were analyzed by applying the generated neural network to the entirety of the treatment dataset. This is subsequently referred to as a “transference” of the aging model to the treatment data.
Next, as described in Example 6, average age predictions for each mouse were produced by predicting the biological age classification for each tile and averaging all tiles' predictions together. This calculation was performed for all three folds of the data, and those average predictions were then averaged together again. This produced a single numerical biological age prediction for each mouse, which was compared to control.
Next, as described in Example 6, p-values were calculated using the Kolmogorov-Smirnov test to assess the statistical difference of the distributions of age predictions for each compound versus control. Note that in this case, because there are multiple plates being tested, each with different test compounds, each compound is compared only to the control wells on its own plate, thereby resulting in different control values for each compound, as shown in Table 9.

[2] = system: mouse skin tissue; assay: In vivo tissue-based drug screening of mouse skin tissue with machine-learning biological age prediction; set-up: species or system C57BL/6J mice; settings: daily topical application for 61 days
Method: The machine learning systems and methods for predicting biological age were applied toward accelerating drug screens designed to detect interventions that slow or reverse one or more phenotypes of aging. Such a drug screening approach was tested using proof-of-concept drug screens, including an in vivo drug screening experimental model. This machine learning-based drug screening approach for aging-related therapies is described below. The machine learning-based skin tissue aging modeling approach was used to test an in vivo screening system for detecting topical anti-aging interventions on mouse skin.
Mouse skin tissue samples were acquired and prepared as follows. Skin samples were collected from 75 healthy C57BL/6J mice in five separate groups: 15 mice in a control group were 10 months old (“Control 1”), 15 mice in another control group were 14 months old (“Control 2”), 15 mice in a third control group were 18 months old (“Control 3”), and two independent treatment groups comprised 18-month-old mice (“Test Article 1” and “Test Article 2”). Each treatment group included 15 mice given a daily topical application for 61 days, as detailed below. All mouse ages are referenced from the start of the experiment.
The mice were shaved as necessary on a weekly basis in order to enable daily topical application on the back of the mice. […]

Molecule | Change relative to control [1] [%] | Average predicted age of treatment (months) [1] [months] | Average predicted age (months) ([2]; 18-month-old mice, HES-stained skin biopsies, averaged over tiles, three folds and mice) | Change relative to control group ([2]; average predicted age vs control group (averaged across control groups 1-3)) [%]
CC(C)n1nc(-c2cc3cc(O)ccc3[nH]2)c2c(N)ncnc21 [PP242] | −17.14 | 56.16 |  | 
Wnt3a | −5.04 | 64.11 |  | 
Cc1cccc(-c2[nH]ncc2-c2ccc3ncccc3n2)n1 [ALK5 inhibitor II] | −14.13 | 56.22 |  | 
CC1=C(/C=C/C(C)=C/C=C/C(C)=C/C(=O)O)C(C)(C)CCC1 [Test Article 1, All Trans Retinoic Acid] |  |  | 15.9 | −7.28
CC[C@H](C)[C@@H]1NC(=O)[C@H](Cc2ccc(O)cc2)NC(=O)[C@@H](N)CSSC[C@@H](C(=O)N2CCC[C@H]2C(=O)N[C@@H](CC(C)C)C(=O)NCC(N)=O)NC(=O)[C@H](CC(N)=O)NC(=O)[C@H](CCC(N)=O)NC1=O [Oxytocin] | −0.92 | 67.66 |  | 
